We go through eleven molecules from patent publication US20260356819A1, “OXOISOINDOLINYL-SUBSTITUTED […] DERIVATIVE AND USE THEREOF” (GLUETACS THERAPEUTICS (SHANGHAI) CO., LTD., priority 2023, published 2026).

Common to all, as to format: cell-based
Conditions in all cases: compounds at 50 nM and 500 nM

The target in one test is T1, WEE1 (Homo sapiens, UniProt P30291+Q96SW2).
T1 construct: The supernatant was aspirated as the extracted total cell protein; endogenous in cells; host or cells: human peripheral blood mononuclear cells (hPBMCs)
Briefly: Western blot degradation of WEE1 in hPBMCs (24 h). In a few lines:
(§1)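 PBMC Western blot, 24 h treatment; test levels 50 nM and 500 nM. Band density ÷ internal control, normalised → % remaining; degradation (%) = 1 − remaining.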
A general note: A western blot detects proteins with antibodies after separation by electrophoresis.

The next test has as its target T2, CK1α (Homo sapiens, UniProt P48729+Q96SW2).
T2 construct: The supernatant was aspirated as the extracted total cell protein; endogenous in cells; host or cells: human peripheral blood mononuclear cells (hPBMCs)
As to the kind of experiment: Western blot degradation of CK1α in hPBMCs (24 h). The method in brief: as §1

A further test deals with T3, IKZF1 (Homo sapiens, UniProt Q13422+Q96SW2).
T3 construct: The supernatant was aspirated as the extracted total cell protein; endogenous in cells; host or cells: human peripheral blood mononuclear cells (hPBMCs)
T3 sequence (Q13422 whole entry): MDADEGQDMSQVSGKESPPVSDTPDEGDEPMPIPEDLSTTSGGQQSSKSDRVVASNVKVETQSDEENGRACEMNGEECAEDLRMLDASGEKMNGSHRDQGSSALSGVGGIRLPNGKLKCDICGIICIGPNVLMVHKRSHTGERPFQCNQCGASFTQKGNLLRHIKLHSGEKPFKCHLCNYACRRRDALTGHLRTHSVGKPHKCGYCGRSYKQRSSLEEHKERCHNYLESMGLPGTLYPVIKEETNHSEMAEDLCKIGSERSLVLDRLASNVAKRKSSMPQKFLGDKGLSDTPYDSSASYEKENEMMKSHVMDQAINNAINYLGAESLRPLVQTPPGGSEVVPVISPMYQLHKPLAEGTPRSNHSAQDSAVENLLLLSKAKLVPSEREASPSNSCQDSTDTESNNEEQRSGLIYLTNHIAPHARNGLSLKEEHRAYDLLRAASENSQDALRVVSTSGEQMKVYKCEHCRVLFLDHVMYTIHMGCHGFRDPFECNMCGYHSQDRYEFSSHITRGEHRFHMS
T3 sequence (Q96SW2 whole entry): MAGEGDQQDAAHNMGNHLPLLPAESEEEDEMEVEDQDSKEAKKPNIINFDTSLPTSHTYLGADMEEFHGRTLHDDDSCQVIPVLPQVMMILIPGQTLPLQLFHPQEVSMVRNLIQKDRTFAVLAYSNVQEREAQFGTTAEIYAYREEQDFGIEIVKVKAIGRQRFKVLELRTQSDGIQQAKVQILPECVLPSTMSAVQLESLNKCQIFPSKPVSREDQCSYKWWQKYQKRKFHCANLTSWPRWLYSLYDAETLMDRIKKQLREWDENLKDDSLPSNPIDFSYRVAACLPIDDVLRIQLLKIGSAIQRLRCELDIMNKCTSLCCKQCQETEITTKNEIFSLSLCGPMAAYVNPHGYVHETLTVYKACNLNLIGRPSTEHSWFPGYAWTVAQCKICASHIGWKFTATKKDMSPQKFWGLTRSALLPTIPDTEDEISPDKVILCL
T3 sequence (Q16531 whole entry partner): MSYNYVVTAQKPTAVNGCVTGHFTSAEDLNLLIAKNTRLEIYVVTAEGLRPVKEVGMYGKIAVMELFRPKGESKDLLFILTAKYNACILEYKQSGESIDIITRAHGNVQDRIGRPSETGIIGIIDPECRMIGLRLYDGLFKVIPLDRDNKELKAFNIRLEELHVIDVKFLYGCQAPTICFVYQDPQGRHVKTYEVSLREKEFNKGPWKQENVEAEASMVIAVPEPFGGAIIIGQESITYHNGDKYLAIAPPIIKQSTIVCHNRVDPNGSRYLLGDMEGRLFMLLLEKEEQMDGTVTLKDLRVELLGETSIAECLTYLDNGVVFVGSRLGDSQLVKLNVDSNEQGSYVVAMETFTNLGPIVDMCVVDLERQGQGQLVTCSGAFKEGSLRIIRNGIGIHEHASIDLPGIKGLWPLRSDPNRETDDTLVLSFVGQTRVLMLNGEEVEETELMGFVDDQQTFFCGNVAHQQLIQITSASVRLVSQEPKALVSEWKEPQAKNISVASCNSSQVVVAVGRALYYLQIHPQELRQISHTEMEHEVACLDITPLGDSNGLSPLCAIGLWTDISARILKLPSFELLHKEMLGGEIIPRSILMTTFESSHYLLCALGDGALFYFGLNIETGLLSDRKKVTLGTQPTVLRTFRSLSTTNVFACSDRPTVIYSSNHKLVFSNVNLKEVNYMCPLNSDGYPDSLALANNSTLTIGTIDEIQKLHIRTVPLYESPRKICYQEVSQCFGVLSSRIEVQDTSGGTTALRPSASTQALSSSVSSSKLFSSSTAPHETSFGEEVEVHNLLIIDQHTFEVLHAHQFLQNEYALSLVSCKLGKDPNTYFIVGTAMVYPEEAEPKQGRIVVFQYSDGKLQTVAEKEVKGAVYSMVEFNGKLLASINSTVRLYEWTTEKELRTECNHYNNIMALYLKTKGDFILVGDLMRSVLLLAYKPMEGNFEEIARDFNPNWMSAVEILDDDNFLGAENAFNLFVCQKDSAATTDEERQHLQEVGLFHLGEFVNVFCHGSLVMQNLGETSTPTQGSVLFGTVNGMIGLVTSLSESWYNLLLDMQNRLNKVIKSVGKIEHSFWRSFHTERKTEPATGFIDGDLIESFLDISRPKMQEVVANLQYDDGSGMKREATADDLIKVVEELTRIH
Briefly: Western blot degradation of IKZF1 in hPBMCs (24 h). The method in brief:
as §1

Another test has as its target T4, GSPT1 (Homo sapiens, UniProt P15170+Q96SW2).
T4 construct: The supernatant was aspirated as the extracted total cell protein; endogenous in cells; host or cells: human peripheral blood mononuclear cells (hPBMCs)
As to the kind of experiment: Western blot degradation of GSPT1 in hPBMCs (24 h). In a few lines:
as §1

Another test deals with T5, IKZF3 (Homo sapiens, UniProt Q96SW2+Q9UKT9).
T5 construct: The supernatant was aspirated as the extracted total cell protein; endogenous in cells; host or cells: human peripheral blood mononuclear cells (hPBMCs)
T5 sequence (Q9UKT9 whole entry): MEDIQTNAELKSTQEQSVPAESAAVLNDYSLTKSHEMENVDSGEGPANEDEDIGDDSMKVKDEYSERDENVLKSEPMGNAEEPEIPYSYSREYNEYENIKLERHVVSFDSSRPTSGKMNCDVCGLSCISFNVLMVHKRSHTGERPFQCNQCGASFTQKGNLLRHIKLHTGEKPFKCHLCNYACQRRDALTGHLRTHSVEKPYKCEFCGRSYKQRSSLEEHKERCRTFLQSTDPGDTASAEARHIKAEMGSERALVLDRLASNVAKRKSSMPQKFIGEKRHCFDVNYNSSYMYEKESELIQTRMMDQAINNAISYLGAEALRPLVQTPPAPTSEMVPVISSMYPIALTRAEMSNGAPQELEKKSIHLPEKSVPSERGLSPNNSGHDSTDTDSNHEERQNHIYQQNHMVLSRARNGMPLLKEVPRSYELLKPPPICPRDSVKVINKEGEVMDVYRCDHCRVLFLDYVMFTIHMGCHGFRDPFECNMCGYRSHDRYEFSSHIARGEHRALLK
T5 sequence (Q96SW2 whole entry): as the sequence (Q96SW2 whole entry) above
T5 sequence (Q16531 whole entry partner): as the sequence (Q16531 whole entry partner) above
Briefly: Western blot degradation of IKZF3 in hPBMCs (24 h). In a few lines:
as §1

For the next test, the target named is T6, IKZF2 (Homo sapiens, UniProt Q96SW2+Q9UKS7).
T6 construct: The supernatant was aspirated as the extracted total cell protein; endogenous in cells; host or cells: human peripheral blood mononuclear cells (hPBMCs)
T6 sequence (Q9UKS7 whole entry): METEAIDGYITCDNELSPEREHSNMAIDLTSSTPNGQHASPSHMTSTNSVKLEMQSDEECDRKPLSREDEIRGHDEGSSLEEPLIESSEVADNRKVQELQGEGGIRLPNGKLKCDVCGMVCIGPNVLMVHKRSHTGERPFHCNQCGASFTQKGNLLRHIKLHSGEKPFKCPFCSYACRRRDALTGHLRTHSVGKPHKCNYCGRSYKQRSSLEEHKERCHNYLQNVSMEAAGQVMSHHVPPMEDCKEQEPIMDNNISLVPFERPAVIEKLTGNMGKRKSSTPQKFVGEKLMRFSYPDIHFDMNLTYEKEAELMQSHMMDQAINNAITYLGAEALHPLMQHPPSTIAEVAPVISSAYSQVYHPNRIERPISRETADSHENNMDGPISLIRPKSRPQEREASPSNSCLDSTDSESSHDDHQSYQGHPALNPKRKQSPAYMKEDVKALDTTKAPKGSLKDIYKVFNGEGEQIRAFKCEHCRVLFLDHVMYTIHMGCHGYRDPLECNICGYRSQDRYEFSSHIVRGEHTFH
T6 sequence (Q96SW2 whole entry): as the sequence (Q96SW2 whole entry) above
T6 sequence (Q16531 whole entry partner): as the sequence (Q16531 whole entry partner) above
As to the kind of experiment: Western blot degradation of IKZF2 in hPBMCs (24 h). The method in brief:
as §1

T2 sequence (P48729 whole entry): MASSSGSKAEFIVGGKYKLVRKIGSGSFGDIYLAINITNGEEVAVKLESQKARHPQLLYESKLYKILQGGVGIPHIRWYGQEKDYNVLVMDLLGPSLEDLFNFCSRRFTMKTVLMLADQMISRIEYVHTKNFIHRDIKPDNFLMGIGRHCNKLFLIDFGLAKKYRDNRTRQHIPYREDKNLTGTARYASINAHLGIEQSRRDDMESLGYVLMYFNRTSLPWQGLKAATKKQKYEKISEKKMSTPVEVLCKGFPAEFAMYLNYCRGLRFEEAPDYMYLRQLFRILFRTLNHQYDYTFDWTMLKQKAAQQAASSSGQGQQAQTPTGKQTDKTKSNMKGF
T2 sequence (Q96SW2 whole entry): as the sequence (Q96SW2 whole entry) above
T2 sequence (Q16531 whole entry partner): as the sequence (Q16531 whole entry partner) above
T4 sequence (P15170 whole entry): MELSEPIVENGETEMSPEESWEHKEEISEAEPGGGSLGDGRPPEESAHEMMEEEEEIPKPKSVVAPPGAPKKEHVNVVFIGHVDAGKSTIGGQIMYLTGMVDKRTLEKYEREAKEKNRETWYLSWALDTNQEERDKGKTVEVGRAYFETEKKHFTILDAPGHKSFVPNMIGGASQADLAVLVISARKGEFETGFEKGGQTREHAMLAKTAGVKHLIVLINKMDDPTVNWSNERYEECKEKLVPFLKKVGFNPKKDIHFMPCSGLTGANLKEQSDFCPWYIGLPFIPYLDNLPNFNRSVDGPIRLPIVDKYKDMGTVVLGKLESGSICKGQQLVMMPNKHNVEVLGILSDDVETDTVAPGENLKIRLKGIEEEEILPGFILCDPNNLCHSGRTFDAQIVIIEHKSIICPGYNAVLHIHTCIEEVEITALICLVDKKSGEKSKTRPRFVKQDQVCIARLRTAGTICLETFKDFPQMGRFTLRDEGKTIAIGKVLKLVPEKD
T4 sequence (Q96SW2 whole entry): as the sequence (Q96SW2 whole entry) above
T4 sequence (Q16531 whole entry partner): as the sequence (Q16531 whole entry partner) above

As for `O=C1CCN(N2Cc3cc(CN4CCN(c5ncnc6sc7c(c56)CCCC7)CC4)ccc3C2=O)C(=O)N1` [GT-08077, 1-(1-oxo-5-((4-(5,6,7,8-tetrahydrobenzo[4,5]thieno[2,3-d]pyrimidin-4-yl)piperazin-1-yl)methyl)isoindolin-2-yl)dihydropyrimidine-2,4(1H,3H)-dione], the “WEE1 substrate protein remaining %” value on WEE1 was “B (80%< substrate protein remaining % ≤100%)”. In addition, the “CK1α substrate protein remaining %” value at CK1α is “A (0% ≤ substrate protein remaining % ≤80%)”. Further, the “IKZF1 substrate protein remaining %” value at IKZF1 was “B (80%< substrate protein remaining % ≤100%)”. Moreover, the “GSPT1 substrate protein remaining %” value at GSPT1 is given as “A (0% ≤ substrate protein remaining % ≤80%)”. The “IKZF3 substrate protein remaining %” value at IKZF3 is given as “B (80%< substrate protein remaining % ≤100%)”. In addition, the “IKZF2 substrate protein remaining %” value on IKZF2 is given as “B (80%< substrate protein remaining % ≤100%)”.

With `O=C1CCN(N2C(=O)c3ccc(CN4C5CCC4CN(c4cccc(Cl)c4Cl)C5)cc3C2=O)C(=O)N1` [GT-07438, 5-((3-(2,3-dichlorophenyl)-3,8-diazabicyclo[3.2.1]octan-8-yl)methyl)-2-(2,4-dioxotetrahydropyrimidin-1(2H)-yl)isoindoline-1,3-dione], the “WEE1 substrate protein remaining %” value on WEE1 was “A (0% ≤ substrate protein remaining % ≤80%)”. In addition, on CK1α, the “CK1α substrate protein remaining %” value is given as “A (0% ≤ substrate protein remaining % ≤80%)”. In addition, the “IKZF1 substrate protein remaining %” value on IKZF1 is recorded as “B (80%< substrate protein remaining % ≤100%)”. The “GSPT1 substrate protein remaining %” value at GSPT1 is “A (0% ≤ substrate protein remaining % ≤80%)”. Further, the “IKZF3 substrate protein remaining %” value on IKZF3 is “B (80%< substrate protein remaining % ≤100%)”. For the same molecule, the “IKZF2 substrate protein remaining %” value on IKZF2 is reported as “B (80%< substrate protein remaining % ≤100%)”.

For the molecule `O=C1CCN(N2Cc3cc(CN4CCN(c5c(Cl)ccnc5Cl)CC4)ccc3C2=O)C(=O)N1` [GT-06974, 1-(5-((4-(2,4-dichloropyridin-3-yl)piperazin-1-yl)methyl)-1-oxoisoindolin-2-yl)dihydropyrimidine-2,4(1H,3H)-dione], the “WEE1 substrate protein remaining %” value at WEE1 is “A (0% ≤ substrate protein remaining % ≤80%)”. In addition, on CK1α, the “CK1α substrate protein remaining %” value is recorded as “B (80%< substrate protein remaining % ≤100%)”. Also, at IKZF1, the “IKZF1 substrate protein remaining %” value is on record as “A (0% ≤ substrate protein remaining % ≤80%)”. The “GSPT1 substrate protein remaining %” value at GSPT1 was “B (80%< substrate protein remaining % ≤100%)”. The “IKZF3 substrate protein remaining %” value at IKZF3 was “A (0% ≤ substrate protein remaining % ≤80%)”. For the same molecule, the “IKZF2 substrate protein remaining %” value at IKZF2 is on record as “B (80%< substrate protein remaining % ≤100%)”.

On to `CC1(C)CC(c2ccc(Cl)cc2)=C(CN2CCN(Cc3ccc4c(c3)CN(N3CCC(=O)NC3=O)C4=O)CC2)CO1` [GT-07332, 1-(5-((4-((4-(4-chlorophenyl)-6,6-dimethyl-5,6-dihydro-2H-pyran-3-yl)methyl)piperazin-1-yl)methyl)-1-oxoisoindolin-2-yl)dihydropyrimidine-2,4(1H,3H)-dione], for which the “WEE1 substrate protein remaining %” value on WEE1 was “A (0% ≤ substrate protein remaining % ≤80%)”. Besides, the “CK1α substrate protein remaining %” value at CK1α is “B (80%< substrate protein remaining % ≤100%)”. The “IKZF1 substrate protein remaining %” value on IKZF1 was “A (0% ≤ substrate protein remaining % ≤80%)”. Further, at GSPT1, the “GSPT1 substrate protein remaining %” value is on record as “A (0% ≤ substrate protein remaining % ≤80%)”. At IKZF3, the “IKZF3 substrate protein remaining %” value was “A (0% ≤ substrate protein remaining % ≤80%)”. In addition, the “IKZF2 substrate protein remaining %” value on IKZF2 was “B (80%< substrate protein remaining % ≤100%)”.

For the molecule `O=C1CCN(N2C(=O)c3ccc(CN4CCN(c5ncc6ccsc6n5)CC4)cc3C2=O)C(=O)N1` [GT-08105, 2-(2,4-dioxotetrahydropyrimidin-1(2H)-yl)-5-((4-(thieno[2,3-d]pyrimidin-2-yl)piperazin-1-yl)methyl)isoindoline-1,3-dione], the “WEE1 substrate protein remaining %” value at WEE1 is “B (80%< substrate protein remaining % ≤100%)”. Besides, the “CK1α substrate protein remaining %” value at CK1α is reported as “B (80%< substrate protein remaining % ≤100%)”. Moreover, the “IKZF1 substrate protein remaining %” value on IKZF1 was “B (80%< substrate protein remaining % ≤100%)”. Besides, the “GSPT1 substrate protein remaining %” value on GSPT1 is on record as “A (0% ≤ substrate protein remaining % ≤80%)”. In addition, the “IKZF3 substrate protein remaining %” value at IKZF3 is listed as “A (0% ≤ substrate protein remaining % ≤80%)”. Also, the “IKZF2 substrate protein remaining %” value on IKZF2 is recorded as “A (0% ≤ substrate protein remaining % ≤80%)”.

For the molecule `O=C1CCN(N2Cc3cc(CN4CCN(c5ccc(F)c(F)c5)CC4)ccc3C2=O)C(=O)N1` [GT-06781, 1-(5-((4-(3,4-difluorophenyl)piperazin-1-yl)methyl)-1-oxoisoindolin-2-yl)dihydropyrimidine-2,4(1H,3H)-dione], on WEE1, the “WEE1 substrate protein remaining %” value is recorded as “B (80%< substrate protein remaining % ≤100%)”. At CK1α, the “CK1α substrate protein remaining %” value is “A (0% ≤ substrate protein remaining % ≤80%)”. For the same molecule, the “IKZF1 substrate protein remaining %” value on IKZF1 is “B (80%< substrate protein remaining % ≤100%)”. In addition, on GSPT1, the “GSPT1 substrate protein remaining %” value is listed as “A (0% ≤ substrate protein remaining % ≤80%)”. Besides, the “IKZF3 substrate protein remaining %” value at IKZF3 is on record as “B (80%< substrate protein remaining % ≤100%)”. Also, the “IKZF2 substrate protein remaining %” value on IKZF2 is “B (80%< substrate protein remaining % ≤100%)”.

Turning to `O=C1CCN(N2C(=O)c3ccc(CN4CC5CCC4CN5C(c4ccccc4)c4ccccc4)cc3C2=O)C(=O)N1` (stereo not drawn) [GT-06451, 5-((5-benzhydryl-2,5-diazabicyclo[2.2.2]octan-2-yl)methyl)-2-(2,4-dioxotetrahydropyrimidin-1(2H)-yl)isoindoline-1,3-dione], the “WEE1 substrate protein remaining %” value at WEE1 is “A (0% ≤ substrate protein remaining % ≤80%)”. The “CK1α substrate protein remaining %” value on CK1α is recorded as “B (80%< substrate protein remaining % ≤100%)”. Further, the “IKZF1 substrate protein remaining %” value at IKZF1 is “B (80%< substrate protein remaining % ≤100%)”. In addition, the “GSPT1 substrate protein remaining %” value at GSPT1 is on record as “B (80%< substrate protein remaining % ≤100%)”. Also, the “IKZF3 substrate protein remaining %” value on IKZF3 was “B (80%< substrate protein remaining % ≤100%)”. The “IKZF2 substrate protein remaining %” value at IKZF2 is recorded as “B (80%< substrate protein remaining % ≤100%)”.

For the molecule `O=C1CCN(N2Cc3cc(CN4CCC(c5c[nH]c6ncccc56)CC4)ccc3C2=O)C(=O)N1` [GT-07576, 1-(5-((4-(1H-pyrrolo[2,3-b]pyridin-3-yl)piperidin-1-yl)methyl)-1-oxoisoindolin-2-yl)dihydropyrimidine-2,4(1H,3H)-dione], the “WEE1 substrate protein remaining %” value at WEE1 is reported as “A (0% ≤ substrate protein remaining % ≤80%)”. The “CK1α substrate protein remaining %” value on CK1α is reported as “A (0% ≤ substrate protein remaining % ≤80%)”. Further, the “IKZF1 substrate protein remaining %” value on IKZF1 is recorded as “A (0% ≤ substrate protein remaining % ≤80%)”. Further, the “GSPT1 substrate protein remaining %” value on GSPT1 was “A (0% ≤ substrate protein remaining % ≤80%)”. The “IKZF3 substrate protein remaining %” value on IKZF3 is “B (80%< substrate protein remaining % ≤100%)”. Further, at IKZF2, the “IKZF2 substrate protein remaining %” value is on record as “A (0% ≤ substrate protein remaining % ≤80%)”.

Take `O=C1CCN(N2Cc3cc(CN4CCN(c5ccc(Cl)cc5Cl)CC4)ccc3C2=O)C(=O)N1` [GT-06772, 1-(5-((4-(2,4-dichlorophenyl)piperazin-1-yl)methyl)-1-oxoisoindolin-2-yl)dihydropyrimidine-2,4(1H,3H)-dione]: the “WEE1 substrate protein remaining %” value at WEE1 is listed as “A (0% ≤ substrate protein remaining % ≤80%)”. At CK1α, the “CK1α substrate protein remaining %” value is reported as “A (0% ≤ substrate protein remaining % ≤80%)”. Moreover, the “IKZF1 substrate protein remaining %” value on IKZF1 is given as “B (80%< substrate protein remaining % ≤100%)”. At GSPT1, the “GSPT1 substrate protein remaining %” value was “A (0% ≤ substrate protein remaining % ≤80%)”. For the same molecule, the “IKZF3 substrate protein remaining %” value at IKZF3 is given as “A (0% ≤ substrate protein remaining % ≤80%)”. For the same molecule, the “IKZF2 substrate protein remaining %” value on IKZF2 is listed as “A (0% ≤ substrate protein remaining % ≤80%)”.

Regarding `Cc1sc2ncnc(C3=CCN(Cc4ccc5c(c4)C(=O)N(N4CCC(=O)NC4=O)C5=O)CC3)c2c1C` [GT-05273, 5-((4-(5,6-dimethylthieno[2,3-d]pyrimidin-4-yl)-3,6-dihydropyridin-1(2H)-yl)methyl)-2-(2,4-dioxotetrahydropyrimidin-1(2H)-yl)isoindoline-1,3-dione], the “WEE1 substrate protein remaining %” value on WEE1 is “B (80%< substrate protein remaining % ≤100%)”. In addition, the “CK1α substrate protein remaining %” value at CK1α is “B (80%< substrate protein remaining % ≤100%)”. Also, the “IKZF1 substrate protein remaining %” value on IKZF1 is given as “B (80%< substrate protein remaining % ≤100%)”. The “GSPT1 substrate protein remaining %” value on GSPT1 is given as “B (80%< substrate protein remaining % ≤100%)”. Further, on IKZF3, the “IKZF3 substrate protein remaining %” value was “B (80%< substrate protein remaining % ≤100%)”. Moreover, the “IKZF2 substrate protein remaining %” value on IKZF2 was “A (0% ≤ substrate protein remaining % ≤80%)”.

Regarding `O=C1CCN(N2Cc3cc(CN4CCC(c5ccnc(F)c5F)CC4)ccc3C2=O)C(=O)N1` [GT-06396, 1-(5-((4-(2,3-difluoropyridin-4-yl)piperidin-1-yl)methyl)-1-oxoisoindolin-2-yl)dihydropyrimidine-2,4(1H,3H)-dione], the “WEE1 substrate protein remaining %” value on WEE1 is given as “B (80%< substrate protein remaining % ≤100%)”. The “CK1α substrate protein remaining %” value at CK1α is recorded as “A (0% ≤ substrate protein remaining % ≤80%)”. For the same molecule, the “IKZF1 substrate protein remaining %” value on IKZF1 is listed as “B (80%< substrate protein remaining % ≤100%)”. At GSPT1, the “GSPT1 substrate protein remaining %” value was “B (80%< substrate protein remaining % ≤100%)”. Besides, at IKZF3, the “IKZF3 substrate protein remaining %” value is on record as “B (80%< substrate protein remaining % ≤100%)”. For the same molecule, the “IKZF2 substrate protein remaining %” value at IKZF2 was “B (80%< substrate protein remaining % ≤100%)”.
